Measured values reported in patent publication US5017687A, “Peptides for the detection of HTLV-1 infection” (Virovahl, S.A., priority 1988, dated 1991).
Values joined by “and” are separate entries in the source; they are usually repeats but may differ in a detail not shown here. Equal entries are not always repeated. Ends that are not written are not given here.

Tests used:
[1] = tested on: HTLV-1 positive serum samples; assay: immunoreactivity screening of eight synthesized peptides A-H with HTLV-1 positive sera; type: binding, human
Description: The four peptides were selected from among eight different synthesized peptides designated A-H which correspond to the HTLV-1 envelope glycoprotein. These peptides were selected using various criteria similar to the selection of useful HIV-1 or HIV-2 peptides, e.g. proximity to or containing a cysteine residue (location of cysteine in similar proteins from related organisms being relatively invariant) and proximity to glycosylation sites. Although such criteria for selection of peptides can rule out potentially nonuseful peptides and indicate potentially useful peptides, further testing was required to identify which of the eight peptides would display immunoreactivity to HTLV-1 positive serum samples. The eight peptides were synthesized in the priority A through H with the […] believed to be least antigenic based on the above-criteria.

antibodies to HTLV-1 [2] = assay: ELISA immunologic reactivity of peptides gpAHTLV-1, gpBHTLV-1 and gpCHTLV-1 with human sera (Table 2); type: binding; conditions: for Mean O.D.405 of Negative Sera / cut off = Mean O.D.405 of Negative Sera + 6 × S.D.: negative sera of Table 2; for confirmed positive HTLV-1 serum samples reacted with peptide: reactive/tested, 6 HTLV-1 positive sera
Protocol: (§1) Polylysine at a concentration of 1 mg/ml was added to the microtiter plates and allowed to incubate for 30 minutes. The polylysine was then discarded and peptide gpAHTLV-1 was added to the wells in a concentration of 10 to 100 μg/ml for coating. After the peptide incubated in the well for a length of time sufficient to allow the peptide to become bonded to the well, the peptide solution was removed and a solution of glutaraldehyde, which stabilizes the peptide attachment to the wells, was added for 15 minutes. The glutaraldehyde solution was then removed, the wells washed with buffer, and a mixture of glycine and bovine serum albumin (BSA) was added which served to block unbound sites in the wells and minimize spurious reactions during the ELISA test per se. After a final washing step, the plates were ready to use.
(§2) A convenient variation of known ELISA methods was used with the microtiter plates prepared as above. Serum samples from individuals which had been diluted 1:50 in PBS (phosphate buffered saline) containing 0.05% polyoxyethylenesorbitan monolaurate (Tween 20) and 1% BSA were added to each well and allowed to incubate for 90 minutes at 37° C. in a humidified atmosphere. The diluted serum samples were then removed from the plates and the wells washed three times with PBS containing 0.05% Tween 20. A conjugated anti-human immunoglobulin (Ig) antibody was then added to the wells and allowed to incubate for 90 minutes. The conjugated antibody was produced in a goat or rabbit and was specific for human IgG, IgM, immunoglobulin light chains, or combinations thereof. Preferably, alkaline-phophatase conjugated anti-human IgG (from Dakopatts) diluted 1:500 for use in PBS containing 0.05% Tween 20 and 1% BSA was used in the ELISA. After the conjugate had incubated a sufficient length of time to react with bound human antibodies, the plates were washed three times as above. In order to detect antibodies to HTLV-1 in the human serum that react with the peptide gpAHTLV-1 used as the antigen, (i.e. positive reactions), a chromogenic substrate, alkaline phosphatase substrate (Sigma Cat. No. 104 tablets) dissolved in a Na carbonate/MgCl2 buffer and adjusted to a concentration of 1 μg/ml which is cleaved by the alkaline phosphatase enzyme attached to the anti-human Ig antibody to yield a colored product, was added. After incubation for approximately 40 minutes at room temperature, positive reactions indicated the presence of antibodies in the sample reactive with the antigen. A yellow to orange to reddish-brown color in each well indicating a positive reaction, was read in a spectrophotometer at 405 nm to quantify the reaction. Spectrophotometric readings were adjusted to correct for background reactions.
Peptides gpAHTLV-1, gpBHTLV-1, gpCHTLV-1, synthesized as described in Example 1, were run in parallel ELISA tests as described in Example 2 against 6 serum samples positive for antibodies to HTLV-1, 8 serum samples positive for antibodies to HIV-1 and 10 blood donor sera negative for HIV-1/HIV-2.

[3] = storage stability of peptide-coated microtiter plates; type: physicochemical; conditions: peptide-coated microtiter plates stored for several months
Protocol: as §1

antibodies to HTLV-1 [4] = assay: ELISA reactivity of gpHHTLV-1 with confirmed positive and true negative sera/CSF (Table 3); type: binding, human
Protocol: as §1, §2
Peptide gpHHTLV-1 having the amino acid sequence: […]OH was synthesized as described in Example 1 and used in an ELISA test as described in Example 2 to measure its immunologic reactivity against confirmed Japanese HTLV-sera and sera from U.S.A. and Europe from patients with Adult T-cell Leukemia Tropical Spastic Paraparesis (TSP) and cerebrospinal fluids (CSF).

antibodies to HTLV-1 [5] = assay: ELISA absorbance on sera and CSF from patients with ATL and TSP using gpHHTLV-1 (Table 5); type: binding, human; conditions: neg CSF 8, 19, 21; diluted 1/20
Protocol: as §1
(§3) A convenient variation of known ELISA methods was used with the microtiter plates prepared as above. […] A yellow to orange to reddish-brown color in each well indicating a positive reaction, was read in a spectrophotometer at 405 nm to quantify the reaction. Spectrophotometric readings were adjusted to correct for background reactions.
Absorbance values on sera and CSF from patients with ATL and TSP were measured in ELISA using gpHHTLV-1 sera diluted 1/50, CSF sera was diluted 1/20.

antibodies to HTLV-1 [6] = assay: ELISA absorbance on Japanese HTLV-1 sera using gpHHTLV-1 (Table 4); type: binding, human; conditions: serum 1248, negative control, Western blot -; diluted 1/50
Protocol: as §1, §3
Absorbance values on Japanese HTLV-1 sera were measured in ELISA using gpHHTLV-1 as well as Du-Pont HTLV-1 ELISA and Western blot. […]

HTLV-1 patient sera = conditions: reactive/tested; Palker et al., 1986; cited from earlier work
[7] = tested on: sera from HTLV-1 positive patients; conditions: reactive/tested; Copeland et al., 1986; cited from earlier work

For “Gly-Leu-Asp-Leu-Leu-Phe-Trp-Glu-Gln-Gly-Gly-Leu-Cys-Lys-Ala-Leu-Gln-Glu-Gln-Cys-Arg-Phe-Pro-Asn-Cys-OH (GLDLLFWEQGGLCKALQEQCRFPNC-OH; cysteine pairing not given here) [gpAHTLV-1]”, the “usefulness for diagnosis of HTLV-1 infection (in words)” value (“usefulness for diagnosis” for short) [1] was “useful for diagnosis of HTLV-1 infection”, the “Mean O.D.405 of Negative Sera” value (antibodies to HTLV-1 [2]) was 0.124 O.D.405 and the “cut off = Mean O.D.405 of Negative Sera + 6 × S.D.” value (antibodies to HTLV-1 [2]) was 0.490 O.D.405. For the same substance, the “confirmed positive HTLV-1 serum samples reacted with peptide” value (antibodies to HTLV-1 [2]) was 6/6 and the “antigenic activity of coated peptide after storage (in words)” value [3] was “without any decrease in antigenic activity”.

In the case of “Leu-Asn-Thr-Glu-Pro-Ser-Gln-Leu-Pro-Pro-Thr-Ala-Pro-Pro-Leu-Leu-Pro-His-Ser-Asn-Leu-Asp-His-Ile-Cys-OH (LNTEPSQLPPTAPPLLPHSNLDHIC-OH) [gpHHTLV-1]”, the “usefulness for diagnosis” value [1] is reported as “useful for diagnosis of HTLV-1 infection”, the “Positive in ELISA” value (antibodies to HTLV-1 [4]; ATL CSF, positive/tested) is reported as 1/1 and the “Positive in ELISA (percent)” value (antibodies to HTLV-1 [4]; Japanese HTLV-1 sera) is reported as 69%. The “Positive in ELISA” value (antibodies to HTLV-1 [4]; Japanese HTLV-1 sera, positive/tested) was 22/32, the “Positive in ELISA” value (antibodies to HTLV-1 [4]; TSP CSF, positive/tested) was 4/4 and the “Positive in ELISA” value (antibodies to HTLV-1 [4]; TSP sera, positive/tested) was 4/4. The “known positive sera confirmed HTLV-1 positive (in words)” value (antibodies to HTLV-1 [4]; Table 3 as summarised in text) was “all known positive sera were confirmed HTLV-1 positive”, the “Positive in ELISA” value (antibodies to HTLV-1 [4]; true negative: 4 EB virus IgM positive sera) was 0/4 and the “Positive in ELISA” value (antibodies to HTLV-1 [4]; true negative: 4 Leukemia patients sera) was 0/4. The “Positive in ELISA” value (antibodies to HTLV-1 [4]; true negative: 4 Rheumatoid factor positive sera) was 0/4, the “Positive in ELISA” value (antibodies to HTLV-1 [4]; true negative: 4 Transplant recipients sera) was 0/4 and the “Positive in ELISA” value (antibodies to HTLV-1 [4]; true negative: 8 CSF (aseptic meningitis)) was 0/8. For the same substance, the “Positive in ELISA” value (antibodies to HTLV-1 [4]; true negative: 8 HIV-2 positive sera) was 0/8, the “Positive in ELISA” value (antibodies to HTLV-1 [4]; true negative: 28 blood donor sera) was 0/28 and the “Positive in ELISA” value (antibodies to HTLV-1 [4]; true negative: 30 HIV-1 positive sera) was 0/30. For the same substance, the “gpHHTLV-1 ELISA absorbance” value (antibodies to HTLV-1 [5]) was 0.033 and 0.039 and 0.056 and the “Absorbance values in gpHHTLV-1 ELISA” value (antibodies to HTLV-1 [6]) was 0.109.

In the case of PYVEPTAPQVL [SP-71], the “HTLV-1 patient sera reacting in RIA” value (HTLV-1 patient sera) is given as 8/9.

For “Pro-Pro-Phe-Ser-Leu-Ser-Pro-Val-Pro-Thr-Leu-NH2 (PPFSLSPVPTL-NH2) [SP-70]”, the “sera from HTLV-1 positive patients reacting” value [7] is given as 4/12.

For “X-Trp-Thr-His-Cys-Phe-Asp-Pro-Gln-Ile-Gln--Ala-Ile-Val-Ser-Ser-Pro-Cys-His-Asn-Ile-Leu-Y-Z (WTHCFDPQIQAIVSSPCHNIL; not fully specified (N-terminus, C-terminus); cysteine pairing not given here; also: end groups X, Y, Z left open in the general formula) [gpBHTLV-1]”, the “usefulness for diagnosis” value [1] was “useful for diagnosis of HTLV-1 infection”, the “Mean O.D.405 of Negative Sera” value (antibodies to HTLV-1 [2]) was 0.088 O.D.405 and the “cut off = Mean O.D.405 of Negative Sera + 6 × S.D.” value (antibodies to HTLV-1 [2]) was 0.298 O.D.405. The “confirmed positive HTLV-1 serum samples reacted with peptide” value (antibodies to HTLV-1 [2]) was 5/6.

For “X-Tyr-Thr-Cys-Ile-Val-Cys-Ile-Asp-Arg-Ala-Ser-Leu-Ser-Thr-Trp-His-Val-Leu- Tyr-Ser-Pro-Y-Z (YTCIVCIDRASLSTWHVLYSP; not fully specified (N-terminus, C-terminus); cysteine pairing not given here; also: end groups X, Y, Z left open in the general formula) [gpCHTLV-1]”, the “usefulness for diagnosis” value [1] was “useful for diagnosis of HTLV-1 infection”, the “Mean O.D.405 of Negative Sera” value (antibodies to HTLV-1 [2]) was 0.116 O.D.405 and the “cut off = Mean O.D.405 of Negative Sera + 6 × S.D.” value (antibodies to HTLV-1 [2]) was 0.368 O.D.405. For the same substance, the “confirmed positive HTLV-1 serum samples reacted with peptide” value (antibodies to HTLV-1 [2]) was 5/6.
